In US11236081B2, “Crystalline salts of corydalmine” (priority 2018, dated 2022):
Where two headings read alike, the source gives them in different places.

Assay: Pharmacokinetic study: plasma concentration and plasma PK parameters after IV/PO dosing (LC-MS/MS, WinNonlin)
Type: in vivo, Male SD Rat
Conditions: male SD rat, plasma; for half-life: read-out: T1/2, Mean (converted)
Source text: Pharmacokinetic and Brain Penetration Study
Dose formulation processing during dosing: The dose formulations will be kept at room temperature.
Concentrations of Test Article in the plasma samples will be analyzed using a LC-MS/MS method.
WinNonlin (Phoenix™, version 6.1) or other similar software will be used for pharmacokinetic calculations. The following pharmacokinetic parameters will be calculated, whenever possible from the plasma concentration versus time data:
IV administration: T1/2, C0, AUClast, AUCinf, MRTinf, Cl, Vss, Number of Points for Regression.
PO administration: T1/2, Cmax, Tmax, MRTinf, AUCinf, AUClast, F %, Number of Points for Regression.
The pharmacokinetic data will be described using descriptive statistics such as mean, standard deviation.

[1] = PO 10 mg/kg (equal to freebase), mean n=3, vehicle 20% HP-β-CD in water (POA, freebase) or water (salts)
[2] = male, Sprague-Dawley, rat, iv, 3 mg/kg, IV 3 mg/kg, individual rats, read-out: concentration in plasma
[3] = male, Sprague-Dawley, rat, iv, 3 mg/kg, IV 3 mg/kg, mean n=3, read-out: concentration in plasma, Mean
[4] = male, Sprague-Dawley, rat, po, 10 mg/kg, PO 10 mg/kg (equal to freebase), mean n=3, vehicle 20% HP-β-CD in water (POA, freebase) or water (salts), read-out: concentration in plasma, Mean
[5] = male, Sprague-Dawley, rat, po, 10 mg/kg, PO 10 mg/kg (equal to freebase), individual rats, vehicle 20% HP-β-CD in water (POA, freebase) or water (salts), read-out: concentration in plasma

SMILES: COc1cc2c(cc1OC)[C@@H]1Cc3ccc(O)c(OC)c3CN1CC2 [Compound (1), l-corydalmine]
- AUClast/D, Mean [1]: 78.8 kg·ng·h/mL/mg
- AUC—% Extrap_obs, Mean [1]: 19.8%
- AUC(0-inf) (male, SD, rat, iv, 3 mg/kg, IV 3 mg/kg, individual rats, read-out: AUCInf): 950 ng·h/mL
- AUC(0-t) (male, SD, rat, iv, 3 mg/kg, IV 3 mg/kg, individual rats, read-out: AUClast): 937 ng·h/mL
- MRT inf (male, SD, rat, iv, 3 mg/kg, IV 3 mg/kg, individual rats, read-out: MRTInf_obs): 1.09 h
- AUC(0-inf) (male, SD, rat, iv, 3 mg/kg, IV 3 mg/kg, mean n=3, read-out: AUCInf, Mean): 1020 ng·h/mL
- AUC(0-t) (male, SD, rat, iv, 3 mg/kg, IV 3 mg/kg, mean n=3, read-out: AUClast, Mean): 1000 ng·h/mL
- MRT inf (male, SD, rat, iv, 3 mg/kg, IV 3 mg/kg, mean n=3, read-out: MRTInf_obs, Mean): 1.23 h
- AUC(0-inf) (male, SD, rat, po, 10 mg/kg, PO 10 mg/kg (equal to freebase), individual rats, vehicle 20% HP-β-CD in water (POA, freebase) or water (salts), read-out: AUCInf): 1490 ng·h/mL
- AUC(0-t) (male, SD, rat, po, 10 mg/kg, PO 10 mg/kg (equal to freebase), individual rats, vehicle 20% HP-β-CD in water (POA, freebase) or water (salts), read-out: AUClast): 615 ng·h/mL
- Tmax (male, SD, rat, po, 10 mg/kg, PO 10 mg/kg (equal to freebase), individual rats, vehicle 20% HP-β-CD in water (POA, freebase) or water (salts), read-out: Tmax): 0.5 h
- AUC(0-inf) (male, SD, rat, po, 10 mg/kg, PO 10 mg/kg (equal to freebase), mean n=3, vehicle 20% HP-β-CD in water (POA, freebase) or water (salts), read-out: AUCInf, Mean): 1080 ng·h/mL
- AUC(0-t) (male, SD, rat, po, 10 mg/kg, PO 10 mg/kg (equal to freebase), mean n=3, vehicle 20% HP-β-CD in water (POA, freebase) or water (salts), read-out: AUClast, Mean): 788 ng·h/mL
- Cmax (male, SD, rat, po, 10 mg/kg, PO 10 mg/kg (equal to freebase), mean n=3, vehicle 20% HP-β-CD in water (POA, freebase) or water (salts), read-out: Cmax, Mean): 202 ng/mL
- MRT inf (male, SD, rat, po, 10 mg/kg, PO 10 mg/kg (equal to freebase), mean n=3, vehicle 20% HP-β-CD in water (POA, freebase) or water (salts), read-out: MRTInf_obs, Mean): 7.84 h
- half-life (male, SD, rat, po, 10 mg/kg, PO 10 mg/kg (equal to freebase), mean n=3, vehicle 20% HP-β-CD in water (POA, freebase) or water (salts)): 4.9 h
- Tmax (male, SD, rat, po, 10 mg/kg, PO 10 mg/kg (equal to freebase), mean n=3, vehicle 20% HP-β-CD in water (POA, freebase) or water (salts), read-out: Tmax, Mean): 0.417 h
- concentration at 0.083 h [2]: 1420 ng/mL
- concentration at 0.083 h [3]: 1480 ng/mL
- concentration at 0.25 h [2]: 974 ng/mL
- concentration at 0.25 h [3]: 976 ng/mL
- concentration at 0.5 h [2]: 401 ng/mL
- concentration at 0.5 h [3]: 478 ng/mL
- concentration at 1 h [2]: 192 ng/mL
- concentration at 1 h [3]: 191 ng/mL
- concentration at 2 h [2]: 63.3 ng/mL
- concentration at 2 h [3]: 68.4 ng/mL
- concentration at 4 h [3]: 30.6 ng/mL
- concentration at 8 h [3]: 6.38 ng/mL
- concentration at 24 h [2]: 0.5 ng/mL
- C0 (male, Sprague-Dawley, rat, iv, 3 mg/kg, IV 3 mg/kg, individual rats, read-out: C0): 1710 ng/mL
- half-life (male, Sprague-Dawley, rat, iv, 3 mg/kg, IV 3 mg/kg, mean n=3): 2.73 h
- concentration at 0.25 h [4]: 191 ng/mL
- concentration at 0.5 h [4]: 197 ng/mL
- concentration at 1 h [5]: 109 ng/mL
- concentration at 1 h [4]: 125 ng/mL
- concentration at 2 h [5]: 75.1 ng/mL
- concentration at 2 h [4]: 66.7 ng/mL
- concentration at 4 h [5]: 66.3 ng/mL
- concentration at 4 h [4]: 51.2 ng/mL
- concentration at 8 h [5]: 68.7 ng/mL
- concentration at 8 h [4]: 49.9 ng/mL
- concentration at 24 h (male, Sprague-Dawley, rat, po, 10 mg/kg, PO 10 mg/kg, mean (one rat BLOQ), vehicle 20% HP-β-CD in water (POA), read-out: concentration in plasma, Mean): 0.574 ng/mL
